Data reported in US20250320471A1, “Method for Producing Compounds, Method for Producing Compound Library, Compound Library, and Screening Method” (The University of Tokyo, priority 2021, published 2025).
Substitutions are numbered along the chain they refer to. In names and notes the source's numbering stands. Several values for one entry are separate records, joined by “and”; a condition that tells them apart may be missing. Identical values can stand only once. Ends that are not written are not given here. Peptide text beside a SMILES is read from it.

Assays:
LimF [1] = test: His-prenylation of low molecular weight compounds, peptides and proteins by LimF; format: biochemical, Limnothrix sp. CACIAM 69d; details: 100 μM LimF, 2 mM GPP, 20 hours; for His-prenylation efficiency (LC/MS): standard conditions
Source text: Next, various low molecular weight compounds, peptides, and proteins, including various compounds that have already been approved as pharmaceuticals, were subjected to His-prenylation facilitated by LimF.

PagF = details: Tyr C5 O-prenylation; cited from earlier work
PirF = details: Tyr C10 O-prenylation; cited from earlier work
LimF [2] = test: Steady-state kinetics of prenylation facilitated by LimF (wild type); format: biochemical, Limnothrix sp. CACIAM 69d; details: Tyr-prenylation (C10 O-), 5 μM LimF, 16° C.
Protocol: Under optimal conditions, the steady-state kinetic parameters of the prenylation reaction of bcLimE2 facilitated by LimF were measured by the methods described below.
The concentration dependence of GPP and MgCl2 in bcLimE2 prenylation reactions facilitated by LimF was measured in reaction systems containing 1 μM LimF, 1 mM or a suitably modified concentration of GPP, 50 mM HEPES pH 7.2, 0.4 mM substrate, 1 mM DTT, and 40 mM or a suitably modified concentration of MgCl2. A reaction solution containing components other than GPP was prepared and preheated to 25° C., and the reaction was then started by adding GPP. After incubating at 25° C., the reaction was stopped at each point and analyzed by LC-MS. Next, the initial rate was calculated as the slope of increase in the amount of prenylation product produced in the linear region. Three separate reactions were carried out under each condition and the mean and standard deviation of the results were used for the analysis.
For GPP concentration dependence and peptide substrate concentration dependence, the kinetic parameters were estimated by fitting the initial rate and GPP substrate concentration or peptide substrate concentration to the Michaelis-Menten model in Graphpad Prism 8.4.2 (GraphPad Prism Software Inc., San Diego, California) software.
Kinetic parameters of the His-prenylation reaction facilitated by LimF were determined based on reactions under optimal conditions using substrates of different concentrations. For the Tyr-prenylation described below, the kinetic parameters were measured under the same conditions except that LimF was set to 5 μM and the reaction temperature was set to 16° C. In order to estimate the kinetic parameters, the initial rate and substrate concentration were fitted to the Michaelis-Menten model in Graphpad Prism 8.4.2 software.
In order to further evaluate the two different prenylation modes by LimF, two teMPs (teR6-H5A/Y7H and teR6-H5A) that undergo efficient His-prenylation and Tyr-prenylation, respectively, were designed and chemically synthesized. Kinetic analysis was carried out according to the above method using these peptides.
Target sequence in this assay (as listed by the source): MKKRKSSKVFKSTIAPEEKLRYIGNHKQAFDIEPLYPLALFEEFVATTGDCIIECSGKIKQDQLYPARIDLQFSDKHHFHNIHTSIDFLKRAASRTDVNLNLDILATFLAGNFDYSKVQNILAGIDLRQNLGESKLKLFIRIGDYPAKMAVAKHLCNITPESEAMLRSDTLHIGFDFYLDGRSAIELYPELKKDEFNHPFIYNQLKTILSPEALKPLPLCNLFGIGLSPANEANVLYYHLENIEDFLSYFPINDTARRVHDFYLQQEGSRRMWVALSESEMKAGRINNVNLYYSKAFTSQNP

Fnq26 = molecular target: T1, Fnq26 (Streptomyces virginiae, UniProt A2AXG5); details: Aromatic C10 O-prenylation; cited from earlier work
T1 sequence (A2AXG5 1-300): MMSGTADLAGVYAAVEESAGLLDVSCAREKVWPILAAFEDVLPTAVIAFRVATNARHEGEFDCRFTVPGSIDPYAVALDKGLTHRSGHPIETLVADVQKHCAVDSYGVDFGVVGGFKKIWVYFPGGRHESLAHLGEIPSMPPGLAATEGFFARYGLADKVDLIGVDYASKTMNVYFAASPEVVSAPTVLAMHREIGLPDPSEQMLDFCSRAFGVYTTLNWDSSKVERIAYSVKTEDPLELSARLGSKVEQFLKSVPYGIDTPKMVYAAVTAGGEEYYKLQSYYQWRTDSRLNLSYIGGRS

bcLimE2 [3] = test: Prenyl group donor tolerance of LimF variants (conversion of bcLimE2); format: biochemical; set-up: key to Final Conversion Efficiency: “n.r.” indicates that the reaction did not proceed; details: for Final Conversion Efficiency: substrate bcLimE2
Protocol: An attempt was made to change the selectivity of LimF with respect to prenyl group donors examined in “2. Evaluation of Enzymatic Activity of LimF” by introducing a mutation into LimF. […], illustrated in FIG. 7(a), was used as the substrate.
(§1) For the assay of LimF variants, 100 μM bcLimE2 was incubated individually at a 5 μL scale with 20 to 100 μM LimF variants under conditions of 1 mM GPP or DMAPP, 50 mM HEPES (pH 7.2), 40 mM MgCl2, 1 mM DTT, and DMSO (4%, v/v). After incubating for 16 hours at 25° C., the reaction was stopped by adding 9 times the amount (45 μL) of a 1% TFA aqueous solution. Next, the mixture was incubated on ice for 10 minutes, a precipitate was separated by centrifugation at 4° C. (15300×g, 10 minutes), and 1 μL of supernatant was subjected to LC-MS analysis.
An amino acid forming a small pocket that stores a prenyl group in the crystal structure was selected for the introduction site of the LimF mutation. Specifically, Gly at position 224 was selected, and this was substituted with a larger amino acid. […] This alignment supports the hypothesis that the 224th Gly contributes to prenyl group selectivity.
as §1, with “[…]” for “5 μL”, “or FPP,” for “or DMAPP,”, “7.2), 5” for “7.2), 40”, “([…])” for “(45 μL)”
An amino acid forming a small pocket that stores a prenyl group in the crystal structure was selected for the introduction site of the LimF mutation. Specifically, the amino acids at the positions described in the table in the left column of FIG. 19 were replaced with relatively small Ala.
Therefore, substitution of amino acids other than Ala with respect to the W273 position was comprehensively performed (middle column of FIG. 19). As a result, The mutation for W273N and W273T are focused, and in addition to the W273N mutation and the W273T mutation, simultaneous substitution with various amino acids was performed for His at 239, which is an amino acid adjacent to position 273 (right column of FIG. 19).

bcLimE2 [4] = molecular target: T2, bcLimE2
T2 chain: RYPHEEIP

## H-Pyr-His-Trp-Ser-Tyr-D-Leu-Leu-Arg-Pro-NHEt [Leoprorelin]
LimF [1]
  prenylation of His residue or imidazole C2 carbon by LimF (in words): very high efficiency
LimF [1]; 500 μM substrate
  His-prenylation efficiency (LC/MS): 99%

## N[C@@H](Cc1ccc(O)cc1)C(=O)N[C@@H](Cc1ccc(O)cc1)C(=O)N[C@@H](Cc1ccc(O)cc1)C(=O)O [YYY] (H-Tyr-Tyr-Tyr-OH)
PagF
  Kcat: 0.0967 s⁻¹
  Km: 160 µM

## CCCC[C@H](NC(C)=O)C(=O)N[C@H]1CC(=O)NCCCC[C@@H](C(=O)O)NC(=O)[C@H](Cc2c[nH]c3ccccc23)NC(=O)[C@H](CCCN=C(N)N)NC(=O)[C@@H](Cc2ccccc2)NC(=O)[C@H](Cc2cnc[nH]2)NC1=O [Bremelanotide, Ac-Nle-Asp(1)-His-D-Phe-Arg-Trp-Lys(1)-OH]
LimF [1]; 500 μM substrate
  His-prenylation efficiency (LC/MS): 1%

## tecyclo[wAVSNLPPRPHITYIEC]S [PBm1]
LimF [1]
  prenylation of His residue or imidazole C2 carbon by LimF (in words): very high efficiency
LimF [1]; 500 μM substrate
  His-prenylation efficiency (LC/MS): 99%

## NC(=O)[C@@H]1CCCN1C(=O)[C@H](Cc1cnc[nH]1)NC(=O)[C@@H]1CCC(=O)N1 [TRH]
LimF [1]; 500 μM substrate
  His-prenylation efficiency (LC/MS): 15%

## Teduglutide (HGDGSFSDEMNTILDNLAARDFINWLIQTKITD; chains of the INN, looked up)
LimF [1]
  prenylation of His residue or imidazole C2 carbon by LimF (in words): very high efficiency
LimF [1]; 125 μM substrate
  His-prenylation efficiency (LC/MS): 50%

## MSGVDYYNPFAGDDAE
PirF
  Kcat: 0.0183 s⁻¹
  Km: 118 µM

## cyclo[MSGVDYYNP] (head-to-tail cyclized)
PirF
  Kcat: 0.0117 s⁻¹
  Km: 116 µM

## tecyclo[DFRGNATYIPC] [teR6-H5A]
LimF [2]
  Kcat: 0.0167 s⁻¹ and 0.0167 ± 0.0017 s⁻¹
  Km: 7300 ± 1800 µM
LimF [2]; listed as tecyclo[DFRGNATYIPC]
  Kcat: 0.0167 s⁻¹

## H-Asp-Arg-Val-Tyr-Ile-His-Pro-Phe-OH [ANGIOTENSIN II]
LimF [1]; 500 μM substrate
  His-prenylation efficiency (LC/MS): 1%

## CCNC(=O)[C@@H]1CCCN1C(=O)[C@H](CCCNC(=N)N)NC(=O)[C@H](CC(C)C)NC(=O)[C@@H](Cc1cn(Cc2ccccc2)cn1)NC(=O)[C@H](Cc1ccc(O)cc1)NC(=O)[C@H](CO)NC(=O)[C@H](Cc1c[nH]c2ccccc12)NC(=O)[C@H](Cc1cnc[nH]1)NC(=O)[C@@H]1CCC(=O)N1 [Histrelin, H-Pyr-His-Trp-Ser-Tyr-D-His(1-Bn)-Leu-Arg-Pro-NHEt]
LimF [1]
  prenylation of His residue or imidazole C2 carbon by LimF (in words): very high efficiency
LimF [1]; 500 μM substrate
  His-prenylation efficiency (LC/MS): 99%

## Pramlintide: analog of amylin (KCNTATCATQRLANFLVHSSNNFGPILPPTNVGSNTY; Pramlintide)
LimF [1]
  prenylation of His residue or imidazole C2 carbon by LimF (in words): very high efficiency
LimF [1]; 125 μM substrate
  His-prenylation efficiency (LC/MS): 99%

## O=C1C(O)=CC(=O)c2c(O)cc(O)cc21 [flaviolin]
Fnq26
  Kcat: 0.000217 s⁻¹
  Km: 21 µM

## Insulin
LimF [1]; 500 μM substrate
  His-prenylation efficiency (LC/MS): 5%

## CN/C(=N\C#N)NCCSCc1nc[nH]c1C [Cimetidine, cimetidine]
LimF [1]
  prenylation of His residue or imidazole C2 carbon by LimF (in words): very high efficiency
LimF [1]; 500 μM substrate
  His-prenylation efficiency (LC/MS): 97%

## Trp-His-Trp-Leu-Gln-Leu-Lys-Pro-Gly-Gln-Pro-Met-Tyr-OH (WHWLQLKPGQPMY-OH) [α-mating factor, cell signaling peptide for yeast]
LimF [1]; 500 μM substrate
  His-prenylation efficiency (LC/MS): 39%

## Aviptadil: synthetic vasoactive intestinal polypeptide (HSDAVFTDNYTRLRKQMAVKKYLNSILN; Aviptadil)
LimF [1]; 125 μM substrate
  His-prenylation efficiency (LC/MS): about 90%
LimF [1]; 125 μM substrate, listed as Avipt ?
  His-prenylation efficiency (LC/MS): 90%

## Cyclo(-Ser-Asn-Leu-Ser-Thr-Asu)-Val-Leu-Gly-Lys-Leu-Ser-Gln-Glu-Leu-His-Lys-Leu-Gln-Thr-Tyr-Pro-Arg-Thr-Asp-Val-Gly-Ala-Gly-Thr-Pro-NH2 [Elcatonin]
LimF [1]; 125 μM substrate
  His-prenylation efficiency (LC/MS): 5%

## O=C(O)c1ccc(O)cc1 [4-hydroxy-benzoate]
Fnq26
  Kcat: 0.00233 s⁻¹
  Km: 5600 µM

B1: LimF-H239G/W273T (protein)
chain: MKKRKSSKVFKSTIAPEEKLRYIGNHKQAFDIEPLYPLALFEEFVATTGDCIIECSGKIKQDQLYPARIDLQFSDKHHFHNIHTSIDFLKRAASRTDVNLNLDILATFLAGNFDYSKVQNILAGIDLRQNLGESKLKLFIRIGDYPAKMAVAKHLCNITPESEAMLRSDTLHIGFDFYLDGRSAIELYPELKKDEFNHPFIYNQLKTILSPEALKPLPLCNLFGIGLSPANEANVLYYGLENIEDFLSYFPINDTARRVHDFYLQQEGSRRMTVALSESEMKAGRINNVNLYYSKAFTSQNP
bcLimE2 [3]; 100 μM bcLimE2, 1 mM GPP or FPP, 5 mM MgCl2, 16 hours, 25° C.
  C15 prenylation (farnesylation) selectivity and efficiency: high selectivity and high efficiency
bcLimE2 [3]; prenyl group donor DMAPP
  Final Conversion Efficiency: n.r.
bcLimE2 [3]; prenyl group donor FPP
  Final Conversion Efficiency: >99%
bcLimE2 [3]; prenyl group donor GGPP
  Final Conversion Efficiency: n.r.
bcLimE2 [3]; prenyl group donor GPP
  Final Conversion Efficiency: 16.9%
bcLimE2 [4]
  KM (mM), kinetics of prenylation of bcLimE2 with FPP as prenyl group donor: 0.62 mM
  KM (mM), kinetics of prenylation of bcLimE2 with GPP as prenyl group donor: 0.58 mM

B2: wt-LimF: prenyltransferase derived from Limnothrix sp. CACIAM 69d, SEQ ID NO: 1 (protein, listed as Limnothrix sp.)
chain: B1 chain with G239H, T273W
modifications: CACIAM 69d
bcLimE2 [3]; prenyl group donor DMAPP
  Final Conversion Efficiency: n.r.
bcLimE2 [3]; prenyl group donor FPP
  Final Conversion Efficiency: 0.0027%
bcLimE2 [3]; prenyl group donor GGPP
  Final Conversion Efficiency: n.r.
bcLimE2 [3]; prenyl group donor GPP
  Final Conversion Efficiency: >99%
